Measured values taken from ChEMBL document CHEMBL1201862, “PubChem BioAssay data set” (2004).
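48-hour exposure; five concentrations; linearly interpolated endpoints. GI50 marks 50% less growth.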 The source made the active and inactive calls. Rule as the data show it: active = GI50 up to about 1.1 µM and inactive = higher.

What was measured:
Test in all cases: growth of human tumour cells (NCI), 48 h
SF-295 = tested on: SF-295
OVCAR-4 = tested on: OVCAR-4
SK-MEL-2 = tested on: SK-MEL-2
NCI-H23 = tested on: NCI-H23
HOP-62 = tested on: HOP-62
M19-MEL = tested on: M19-MEL
DMS-114 = tested on: DMS-114
HCC 2998 = tested on: HCC 2998
IGROV-1 = tested on: IGROV-1
ACHN = tested on: ACHN
SK-MEL-28 = tested on: SK-MEL-28
K562 = tested on: K562
SF-268 = tested on: SF-268
KM12 = tested on: KM12
SK-MEL-5 = tested on: SK-MEL-5
RXF 393 = tested on: RXF 393
SNB-78 = tested on: SNB-78
KM-20L2 = tested on: KM-20L2
NCI-H460 = tested on: NCI-H460
DU-145 = tested on: DU-145

Measured: GI50

Cc1cccc(-n2c(N)c(-c3nc4ccccc4[nH]3)sc2=S)c1
inactive: SF-295 28.1 µM | OVCAR-4 43.4 µM | SK-MEL-2 23.7 µM | NCI-H23 49.8 µM | HOP-62 29.6 µM | M19-MEL 25.8 µM | DMS-114 22.8 µM | HCC 2998 > 10 µM | IGROV-1 30.8 µM | ACHN 23.9 µM | SK-MEL-28 37 µM | K562 29.2 µM | SF-268 76.6 µM | KM12 22 µM | SK-MEL-5 20.9 µM | RXF 393 33.3 µM

NC(=S)N/N=C(/CCN1CCCC1)CC(C1=C(O)C2=CCCCC2OC1=O)c1ccccc1 (stereo unspecified)
inactive: SF-295 > 100 µM | OVCAR-4 > 100 µM | SK-MEL-2 > 100 µM | NCI-H23 > 100 µM | HOP-62 > 100 µM | M19-MEL > 100 µM | HCC 2998 > 100 µM | IGROV-1 > 100 µM | SNB-78 > 100 µM | ACHN > 100 µM | K562 > 100 µM | SF-268 > 100 µM | KM12 > 100 µM | KM-20L2 > 100 µM | SK-MEL-5 > 100 µM | RXF 393 > 100 µM | NCI-H460 > 100 µM

COc1cc(Nc2nc3c(N)cc(C(F)(F)F)cc3nc2-c2ccccc2)cc(OC)c1OC
inactive: SF-295 16.6 µM | OVCAR-4 15 µM | SK-MEL-2 51.4 µM | NCI-H23 70.3 µM | HOP-62 26.3 µM | M19-MEL > 82.2 µM | DMS-114 81.8 µM | HCC 2998 > 100 µM | IGROV-1 55.3 µM | ACHN 42.9 µM | DU-145 > 100 µM | SK-MEL-28 57 µM | K562 > 100 µM | SF-268 33.4 µM | KM12 72.8 µM | KM-20L2 > 65.5 µM | SK-MEL-5 19.1 µM | RXF 393 1.98 µM | NCI-H460 37.2 µM

Cc1nc2ccccc2nc1CC(=O)C(=O)Nc1ccc(Cl)cc1Cl
inactive: SF-295 > 100 µM | OVCAR-4 > 100 µM | SK-MEL-2 > 100 µM | NCI-H23 > 100 µM | HOP-62 > 100 µM | M19-MEL > 100 µM | HCC 2998 > 100 µM | IGROV-1 > 100 µM | SNB-78 > 100 µM | ACHN > 100 µM | SK-MEL-28 > 100 µM | K562 > 100 µM | SF-268 > 100 µM | KM12 > 100 µM | KM-20L2 > 100 µM | SK-MEL-5 > 100 µM | RXF 393 > 100 µM | NCI-H460 > 100 µM

O/N=C1/C(=C/c2ccc(OCc3ccccc3)cc2)CCCC1C(NO)c1ccc(OCc2ccccc2)cc1 (stereo unspecified)
inactive: OVCAR-4 6.41 µM | SK-MEL-2 8.55 µM | NCI-H23 12.7 µM | HOP-62 38.9 µM | M19-MEL 22.2 µM | HCC 2998 46 µM | IGROV-1 > 100 µM | ACHN 17 µM | SK-MEL-28 48.4 µM | K562 9.53 µM | KM12 24.2 µM | KM-20L2 8.38 µM | SK-MEL-5 6.04 µM | RXF 393 3.42 µM | NCI-H460 14.2 µM

Cc1cn([C@H]2C[C@H](N=[N+]=[N-])[C@@H](CO)O2)c(=O)[nH]c1=O [ZIDOVUDINE]
inactive: OVCAR-4 > 85.1 µM | SK-MEL-2 > 100 µM | NCI-H23 > 100 µM | HOP-62 > 100 µM | M19-MEL > 100 µM | DMS-114 > 95.5 µM | HCC 2998 > 100 µM | IGROV-1 > 100 µM | ACHN > 100 µM | DU-145 420 µM | SK-MEL-28 > 100 µM | K562 177 µM | KM12 90.8 µM | KM-20L2 > 100 µM | SK-MEL-5 118 µM | RXF 393 89.5 µM | NCI-H460 42.7 µM

Cc1cc2nc3c(=O)[nH]c(=O)nc-3n(CC(O)C(O)C(O)CO)c2cc1N (stereo unspecified)
inactive: SF-295 > 100 µM | OVCAR-4 > 100 µM | SK-MEL-2 > 100 µM | NCI-H23 > 100 µM | M19-MEL > 100 µM | DMS-114 > 100 µM | HCC 2998 > 100 µM | IGROV-1 > 100 µM | SNB-78 > 100 µM | ACHN > 100 µM | SK-MEL-28 > 100 µM | K562 > 100 µM | KM12 > 100 µM | SK-MEL-5 > 100 µM | NCI-H460 > 100 µM

O=[N+]([O-])c1ccc(C2=Nn3cnnc3SC2)o1
inactive: SF-295 18.3 µM | OVCAR-4 > 10 µM | SK-MEL-2 20.9 µM | NCI-H23 > 10 µM | HOP-62 38.2 µM | M19-MEL 4.02 µM | DMS-114 10.8 µM | HCC 2998 15.8 µM | IGROV-1 > 10 µM | SNB-78 22.2 µM | ACHN 15.8 µM | SK-MEL-28 16.6 µM | K562 21.5 µM | SF-268 19.6 µM | KM12 18.3 µM | SK-MEL-5 16.4 µM | RXF 393 18.4 µM | NCI-H460 10.6 µM

NNC(=O)N/N=C(/CC1(O)C(=O)Nc2ccc(Br)cc21)c1ccccc1 (stereo unspecified)
inactive: SF-295 38.6 µM | SK-MEL-2 34.4 µM | NCI-H23 29 µM | M19-MEL 32.4 µM | IGROV-1 41.1 µM | SNB-78 34.5 µM | ACHN 24.3 µM | SK-MEL-28 28.2 µM | K562 30.5 µM | SF-268 21.5 µM | KM12 25.7 µM | KM-20L2 27.9 µM

CC(C)=CC(=O)CC(=O)C(=O)Nc1ccc(C)c(C)c1
inactive: SF-295 > 100 µM | SK-MEL-2 > 100 µM | NCI-H23 > 100 µM | M19-MEL > 100 µM | IGROV-1 > 100 µM | SNB-78 > 100 µM | ACHN > 100 µM | SK-MEL-28 > 100 µM | K562 > 100 µM | SF-268 > 100 µM | KM12 > 100 µM | KM-20L2 > 100 µM

COC(=O)C(=NNc1ccccc1[N+](=O)[O-])C(=O)OC
inactive: SF-295 > 100 µM | OVCAR-4 88.1 µM | SK-MEL-2 > 100 µM | NCI-H23 > 100 µM | HOP-62 > 100 µM | M19-MEL > 100 µM | HCC 2998 > 100 µM | IGROV-1 > 100 µM | ACHN > 100 µM | SK-MEL-28 > 100 µM | K562 > 100 µM | SF-268 > 100 µM | KM12 > 100 µM | KM-20L2 > 100 µM | RXF 393 > 100 µM | NCI-H460 > 100 µM

CC(=O)/N=C1/N(/C=C2\C(=O)Oc3ccccc3C2=O)C(=O)/C(=C/c2ccccc2Cl)N1C
inactive: SF-295 > 100 µM | OVCAR-4 > 100 µM | SK-MEL-2 > 100 µM | NCI-H23 > 100 µM | HOP-62 > 100 µM | HCC 2998 > 100 µM | IGROV-1 > 100 µM | ACHN > 100 µM | DU-145 > 100 µM | SK-MEL-28 > 100 µM | K562 > 100 µM | SF-268 73.8 µM | KM12 > 100 µM | SK-MEL-5 48 µM | RXF 393 > 100 µM | NCI-H460 > 100 µM
